# Measured values: patent publication US10603335B2, “Cancer treatment combination compositions, methods and uses” (Board of Supervisors of Louisiana State University and …, priority 2016, dated 2020)
# What was measured:
# [1] = tested on: non-target control (NT) Panc-1 spheroides; assay: 3D spheroid growth, non-target control (NT) Panc-1; format: cell-based; details: 30 μM
# [2] = tested on: PATX162 tissue slices; assay: Live Tissue Sensitivity Assay (LTSA), PATX162; format: cell-based; details: single agent, 72 hours
# Experimental: (§1) Animal experiment protocol was reviewed and approved by The University of Texas MD Anderson Cancer Center (Houston, Tex.) institutional review board and in accordance with the Guidelines for the Care and Use of Laboratory Animals published by the National Institutes of Health. PDXs were grown from cryopreserved early passages of PDXs in nude mice as described in previous publications (Kim M P, et al, Nat Protoc 2009; 4(11): 1670-80). Briefly, tumor samples stored in CryoStor™ CS10 storage medium were recovered and cut into about 2 mm3 fragments, soaked in Matrigel, and implanted into the subcutaneous space of Balb/c nude mice (5 mice/PDX). Tumors were harvested when they reach 1.5 cm in diameter for generating tissue slices for drug testing with quadruplicates.
# (§2) About 100 tissue slices were produced from 1 tumorgraft with tissue slicer and arrayed in 96-well plates with previously established method (Roife D, et al, Clin Cancer Res 2016). […] Same volume of medium with 0.1% DMSO was added into control wells. After 72 hours, tissue viabilities were measured with PrestoBlue method. Viability inhibition will be calculated through normalization of viabilities of tissue slices treated with inhibitor against the viability of control (DMSO treated) slices. Inhibition of viability was further analyzed with t-test. […]
# [3] = tested on: LHRHR knock-down (KD) Panc-1 spheroides; assay: 3D spheroid growth, LHRHR knock-down (KD) Panc-1; format: cell-based; details: LHRHR KD Panc-1; 30 μM
# [4] = tested on: PDAC PDXs tissue slices; assay: Live Tissue Sensitivity Assay (LTSA), panel of PDAC PDXs; format: cell-based; details: 16 PDAC PDXs tested; single agent
# Experimental: as §1, §2
# [5] = tested on: XIAP, cIAP1 and cIAP2 mRNA in Panc-1 cells; assay: Quantitative PCR of inhibitors of apoptosis, Panc-1; format: cell-based; details: 50 uM, 24 h post-treatment, relative to DMSO, GAPDH reference
# Experimental: mRNA levels of XIAP, c-IAP1 and c-IAP2 were determined by quantitative real-time PCR using the SYBR Green Real-Time PCR Master Mix form ThermoFisher. Thermal cycling was carried out using the CFX system from BioRad under the following conditions: 95° C. for 10 min and 40 cycles at 95° C. for 15 s and 55° C. for 60 s. mRNA expression for any given gene is represented as comparative to the DMSO-treated cells. GAPDH was used as the housekeeping gene of reference.
# GAPDH was used as a reference. Results presented in FIG. 12A (XIAP relative mRNA levels), FIG. 12B (cIAP1 relative mRNA levels), FIG. 12C (cIAP2 relative mRNA levels).
# [6] = four mice treated with LHRH-curcumin twice a week (20 mg/kg)
# Experimental: Samples of tumor tissue were weighed, then pulverized using a Bessman Tissue Pulverizer cooled 3-5 minutes in liquid nitrogen. Resultant powder was then placed in glass homogenizing chamber, mixed in PBS to 20% solution, and crushed to produce final homogenate. 200 Ml aliquot of homogenate was dispensed in Axygen 2 mL clear microtube (Part #: MCT-200-C-S). Each sample was extracted with 1 mL 10% methanol/90% ethyl acetate, vortexed, and spun 30 minutes at 14,000 rpm in a cold room centrifuge. The upper organic phase layer was then removed and placed in separate microcentrifuge tubes. The procedure was repeated, and pooled tumor extracts were concentrated using a Savant SpeedVac. Samples were reconstituted in 100 μL of 1 mM ascorbic acidic MeOH (pH 4.6), mixed in a sonication bath for 2 minutes, and 75 μL were injected on-column. Reverse-phase HPLC (Agilent 1100 series) with a Thermo ODS Hypersil 5 μm 250 mm×4.6 mm analytical column (Part #: 30105-252130) operated at ambient temperature was used to quantify curcumin in tumor. The mobile phase was 0.1% TFA (Mobile A) and acetonitrile with 0.08% TFA (Mobile B). […] With all analyses performed at 0.5 mL/min flow rate and fluorescence detection at Ex 420 nm and Em 524 nm, curcumin eluted at about 16.5 minutes.
# [7] = tested on: PATX213 tissue slices; assay: Live Tissue Sensitivity Assay (LTSA), PATX213; format: cell-based; details: single agent, 72 hours
# Experimental: as §1, §2
smiles,measurement,setting,value
"COc1cc(/C=C/C(=O)CC(=O)/C=C/c2ccc(OC(=O)CCCC(=O)NCCCC[C@@H](NC(=O)[C@H](Cc3ccc(O)cc3)NC(=O)[C@H](CO)NC(=O)[C@H](Cc3c[nH]c4ccccc34)NC(=O)[C@H](Cc3c[nH]cn3)NC(=O)[C@@H]3CCC(=O)N3)C(=O)N[C@@H](CC(C)C)C(=O)N[C@@H](CCCNC(=N)N)C(=O)N3CCC[C@H]3C(=O)NCC(N)=O)c(OC)c2)ccc1O [LHRH-curcumin, [DLys6]-LHRH-Curcumin]",spheroids growth,[1],superior to that of LHRH or curcumin alone
same,Sensitivity To LHRH-C,[2],Sensitive (The tissue was defined as sensitive to the treatment if both p<0.05 and at least 30% of tissue slice viability on average was inhibited)
same,spheroids growth,[3],"still has an effect on spheroids growth formed by LHRHR KD cells, its effect was inferior to that of curcumin alone"
same,number of PDXs sensitive,[4],8
same,"mRNA levels of XIAP, cIAP1 and c-IAP2",[5],down-regulated
same,free curcumin in tumor tissue extract (HPLC peak at approximately 16.5 min),[6],free curcumin present in the extract
same,Sensitivity To LHRH-C,[7],Sensitive (The tissue was defined as sensitive to the treatment if both p<0.05 and at least 30% of tissue slice viability on average was inhibited)
